Reference: patent US11369623B2, “Anticancer combination of a CBP/catenin inhibitor and an immune checkpoint inhibitor” (PRISM Pharma Co., Ltd., priority 2015, dated 2022)

Tests used:
[1] = system: spontaneous breast cancer of transgenic mouse (MMTV-Wnt-1); assay: Tumor volume in mice serially transplanted with spontaneous breast cancer of transgenic mouse (MMTV-Wnt-1); assay type: in vivo, mouse (C57BL/6J); settings: compound A 50 mg/kg twice per day oral, antibody 10 mg/kg twice per week i.p.
Excerpt: Effect of combined use of CBP/catenin inhibitor (compound A) and anti-mouse PD-1 (CD279) antibody in animal model serially transplanted with subcultured spontaneous breast cancer of transgenic mouse (MMTV-Wnt-1)
Spontaneous breast cancer of transgenic mouse (MMTV-Wnt-1), in which Wnt-1 had been locally expressed in mammary gland epithelial cells, was harvested, and serially transplanted to the background line mouse (C57BL/6J) with trocar. When the serially transplanted tumor became about 1.5 g, it was isolated, processed into fragments of about 30 mg, and subcutaneously transplanted to the side of the body of 5 mice (C57BL/6J) per each group. Engraftment of the tumor was confirmed, and compound A (50 mg/kg, twice per day, 21 days, oral administration) and anti-mouse PD-1 antibody (Clone: RMP1-14, BioXCell) (10 mg/kg, twice per week, 3 weeks, intraperitoneal administration) were each administered singly or in combination.
With the day of the start of administration as day 0, the major axis and the minor axis of the tumor developed in each mouse were measured by Digimatic Caliper (Mitsutoyo) on days 4, 7, 11, 14, 18, and 21.
The tumor volume was calculated according to the following formula. tumor volume TV(mm^3)=tumor major axis(mm)×tumor minor axis^2(mm^2)/2

[2] = system: 624 mel cells and 928 mel cells; assay: Influence on proliferation of melanoma cells; assay type: cell-based, human; settings: 24 hr, any cell
[3] = system: 624 mel cells and 928 mel cells; assay: IL-10 production by melanoma cells (ELISA of culture supernatant); assay type: cell-based, human; settings: 0.2 μM, 24 hr, FIG. 5
Experimental: IL-10 Production Suppressive Action of CBP/Catenin Inhibitor (Compound 1)
624 mel cells and 928 mel cells were used, which are cell lines (melanoma) established from human malignant melanoma patients by US NIH. These cells have been activated and have IL-10 production ability.
In a culture medium (10% FCS-containing RPMI1640, penicillin and streptomycin added), respective melanoma cells were seeded in a 6-well plate at a concentration of 1×10^5 cells/2 ml/well. After seeding, compound 1 was added to a given concentration and the cells were cultured for 24 hr. After 24 hr, the culture supernatant was recovered, and the concentration of IL-10 in the supernatant was measured. For the measurement of IL-10 concentration, Human IL10 OptEIA ELISA set (BD, #555157) was used.

[4] = cited from earlier work
[5] = system: human breast cancer cell line (MDA-MB-231); assay: Side population (cancer stem cell) fraction of MDA-MB-231 after compound treatment; assay type: cell-based; settings: 0.3 μM in culture medium, after 4 days; untreated 1.6% SP cells
Experimental: To a side population fraction (cancer stem cells were considered to have been concentrated) obtained by two-dimensional cell sorting of human breast cancer cell line (MDA-MB-231) with Hoechst Blue and Hoechst Red was added 0.3 μM CBP/catenin inhibitor (compound 2) in the culture medium. After 4 days, the side population fraction almost disappeared (when untreated with medicament, 1.6% SP cells were detected, whereas 0% was detected in compound 2 treatment group), and the cancer stem cells were considered to have differentiated (FIG. 3).

[6] = system: bile duct cancer; settings: cited from earlier work

## C=CCN1CC(=O)N2[C@@H](Cc3ccc(O)cc3F)C(=O)N(Cc3cccc(N4CC(N5CCN(CC)CC5)C4)n3)C[C@@H]2N1C(=O)NCc1ccccc1 [compound A, (6S,9aS)-N-benzyl-8-((6-(3-(4-ethylpiperazin-1-yl)azetidin-1-yl)pyridin-2-yl)methyl)-6-((2-fluoro-4-hydroxyphenyl)methyl)-4,7-dioxo-2-(prop-2-en-1-yl)-octahydro-1H-pyrazino[2,1-c][1,2,4]triazine-1-carboxamide]
[1]; Day 0
  tumor volume TV, Mean ± SEM: 75.3 ± 9.2 mm^3
[1]; Day 4
  tumor volume TV, Mean ± SEM: 83.2 ± 8.5 mm^3
[1]; Day 7
  tumor volume TV, Mean ± SEM: 90.5 ± 22.3 mm^3
[1]; Day 11
  tumor volume TV, Mean ± SEM: 123.1 ± 40.5 mm^3
[1]; Day 14
  tumor volume TV, Mean ± SEM: 140.4 ± 45.1 mm^3
[1]; Day 18
  tumor volume TV, Mean ± SEM: 221.6 ± 47.9 mm^3
[1]; Day 21
  tumor volume TV, Mean ± SEM: 237.7 ± 41.2 mm^3

## C[C@H]1[C@H]2N(C(=O)CN(C)N2C(=O)NCc2ccccc2)[C@@H](Cc2ccc(OP(=O)(O)O)cc2)C(=O)N1Cc1cccc2cccnc12 [compound 1, 4-(((6S,9S,9aS)-1-(benzylcarbamoyl)-2,9-dimethyl-4,7-dioxo-8-(quinolin-8-ylmethyl)octahydro-1H-pyrazino[2,1-c][1,2,4]triazin-6-yl)methyl)phenyl dihydrogen phosphate]
[2]; 0.2 μM
  influence on the proliferation: an influence on the proliferation was not confirmed
[2]; 1 μM
  influence on the proliferation: an influence on the proliferation was confirmed
[3]
  production of IL-10: production of IL-10 was suppressed

## C[C@H]1[C@H]2N(C(=O)CN(C)N2C(=O)NCc2ccccc2)[C@@H](Cc2ccc(OP(=O)(O)O)cc2)C(=O)N1Cc1cccc2cccnc12 [PRI-724]
[4]
  toxicity in human compared with conventional Wnt inhibitors having other mechanisms: clearly less toxic in human than conventional Wnt inhibitors

## C[C@H]1[C@H]2N(C(=O)CN(C)N2C(=O)NCc2ccccc2)[C@@H](Cc2ccc(O)cc2)C(=O)N1Cc1cccc2cccnc12 [compound 2, (6S,9S,9aS)-N-benzyl-6-(4-hydroxybenzyl)-2,9-dimethyl-4,7-dioxo-8-(quinolin-8-ylmethyl)octahydro-1H-pyrazino[2,1-c][1,2,4]triazine-1-carboxamide]
[5]
  SP cells detected (side population fraction): 0%

## O=C1[C@H](Cc2ccc(O)cc2)N2C(=O)CCN(C(=O)NCc3ccccc3)[C@H]2CN1Cc1cccc2ccccc12 [ICG-001, (6S,9aS)-N-benzyl-6-[(4-hydroxyphenyl)methyl]-8-(naphthalen-1-ylmethyl)-4,7-dioxo-3,6,9,9a-tetrahydro-2H-pyrazino[1,2-a]pyrimidine-1-carboxamide]
[6]
  proliferation inhibitory effect in animal model: strong proliferation inhibitory effect
